Target: Dihydroorotate dehydrogenase (quinone), mitochondrial (Homo sapiens, UniProt Q02127)
Assay: Enzyme Assay: The DHODH activity assay is a coupled enzyme assay in which oxidation of DHO and subsequent reduction of ubiquinone are stoichiometrically equivalent to the reduction of DCIP ([…]). The reduction of DCIP is accompanied by a loss of absorbance at 610 nm.Reagents Used:L-Dihydroorotic acid, Sigma, D7128, 2,6-Dichloroindophenol sodium salt hydrate, sigma, D1878 Dimethyl sulfoxide (DMSO), spectroscopic grade purchased from Spectrochem, cat no. 0704209, B. no.--3183650 Decylubiquinone, Sigma, D7911Preparation of Solutions/Reagents:Buffer Preparation: 50 mM tris HCl, 150 mM KCl, and pH 8.0, 0.8% triton.L-Dihydroorotic acid stock solution of 20 mM in buffer2,6-Dichloroindophenol Sodium salt hydrate stock solution of 20 mM in bufferDecylubiquinone stock solution of 20 mM in bufferDMSO used as vehicleProcedure:5 µL of Dimethyl sulfoxide or a compound of formula I in DMSO solution was added to the wells of a 96 well plate. Compounds of formula I were measured at 10 µM.

Chain of Dihydroorotate dehydrogenase (quinone), mitochondrial (Q02127 whole entry): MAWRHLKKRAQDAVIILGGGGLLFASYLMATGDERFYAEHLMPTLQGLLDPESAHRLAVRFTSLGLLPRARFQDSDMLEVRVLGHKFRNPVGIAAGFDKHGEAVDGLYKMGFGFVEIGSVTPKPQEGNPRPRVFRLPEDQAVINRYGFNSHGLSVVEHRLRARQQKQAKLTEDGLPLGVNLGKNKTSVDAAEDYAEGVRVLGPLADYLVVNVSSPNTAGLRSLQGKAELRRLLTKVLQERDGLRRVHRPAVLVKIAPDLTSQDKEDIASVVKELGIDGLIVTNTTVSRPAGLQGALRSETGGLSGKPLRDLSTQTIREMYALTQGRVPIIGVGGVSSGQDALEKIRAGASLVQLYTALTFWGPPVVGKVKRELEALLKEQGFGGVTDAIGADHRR

Cc1cc(C(=O)O)c2nc(C#Cc3ccccc3)[nH]c2c1
IC50: 11.4 µM

From ChEMBL document CHEMBL3638649, “Dihydroorotate dehydrogenase inhibitors” (2015)
